# Molecular target: T1, ROMK (Kir1.1) channel (Homo sapiens, UniProt P48048)
# T1 sequence (P48048 1-391): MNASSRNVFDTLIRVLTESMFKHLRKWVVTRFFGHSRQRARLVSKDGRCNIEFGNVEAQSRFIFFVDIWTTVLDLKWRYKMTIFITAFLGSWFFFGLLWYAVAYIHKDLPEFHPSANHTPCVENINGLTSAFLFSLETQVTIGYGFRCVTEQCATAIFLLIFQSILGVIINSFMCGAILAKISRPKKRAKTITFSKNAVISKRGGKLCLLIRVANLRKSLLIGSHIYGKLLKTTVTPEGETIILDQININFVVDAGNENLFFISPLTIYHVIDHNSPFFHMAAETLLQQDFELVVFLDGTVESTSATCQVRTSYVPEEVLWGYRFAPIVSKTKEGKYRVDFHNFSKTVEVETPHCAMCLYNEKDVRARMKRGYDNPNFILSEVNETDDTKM
# Test: Thallium Flux Assay
# Assay type: cell-based
# In short: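 Thallium flux assay as described in WO 2013/062900. Compounds supplied as HCl salts were tested in salt form.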
row,SMILES,IC50 [nM]
1,"Cc1c(N2CCC3(CCN(C[C@H](O)c4ccc(-n5cnnn5)nc4)CC3)CC2)c(=O)c1=O [Example 81, (R)-3-(9-(2-(6-(1H-tetrazol-1-yl)pyridin-3-yl)-2-hydroxyethyl)-3,9-diazaspiro[5.5]undecan-3-yl)-4-methylcyclobut-3-ene-1,2-dione]",15
2,"O=C1C=C(N2CCC3(CCN(C[C@H](O)c4ccc(-n5cnnn5)cc4F)CC3)CC2)CO1 [Example 22, (R)-4-(9-(2-(2-fluoro-4-(1H-tetrazol-1-yl)phenyl)-2-hydroxyethyl)-3,9-diazaspiro[5.5]undecan-3-yl)furan-2(5H)-one]",17
3,"CC1=C(N2CCC3(CCN(C[C@H](O)c4ccc5c(c4C)COC5=O)CC3)[C@H](F)C2)COC1=O [Example 35, 5-((R)-2-((S)-7-fluoro-9-(4-methyl-5-oxo-2,5-dihydrofuran-3-yl)-3,9-diazaspiro[5.5]undecan-3-yl)-1-hydroxyethyl)-4-methylisobenzofuran-1(3H)-one]",236
4,"O=C1C=C(N2CCC3(CCN(C[C@@H](O)c4ccc(-n5cnnn5)nn4)CC3)CC2)CO1 [Example 17, (R)-4-(9-(2-(6-(1H-tetrazol-1-yl)pyridazin-3-yl)-2-hydroxyethyl)-3,9-diazaspiro[5.5]undecan-3-yl)furan-2(5H)-one]",91
5,"CC1=C(N2CCC3(CCN(C[C@H](O)c4ccc(-n5cnnn5)cc4)CC3)CC2)COC1=O [Example 49, (R)-4-(9-(2-(4-(1H-tetrazol-1-yl)phenyl)-2-hydroxyethyl)-3,9-diazaspiro[5.5]undecan-3-yl)-3-methylfuran-2(5H)-one]",16
6,"C[C@H]1Cc2cc([C@@H](O)CN3CCC4(CC3)CCN(C3=CC(=O)OC3)CC4)ccc2C(=O)O1 [Example 11, (S)-6-((R)-1-hydroxy-2-(9-(5-oxo-2,5-dihydrofuran-3-yl)-3,9-diazaspiro[5.5]undecan-3-yl)ethyl)-3-methylisochroman-1-one]",180
7,"Cc1c(N2CCC3(CCN(C[C@H](O)c4ccc(-n5cnnn5)nn4)CC3)CC2)c(=O)c1=O [Example 83, (S)-3-(9-(2-(6-(1H-tetrazol-1-yl)pyridazin-3-yl)-2-hydroxyethyl)-3,9-diazaspiro[5.5]undecan-3-yl)-4-methylcyclobut-3-ene-1,2-dione]",317
8,"Cc1c([C@@H](O)CN2CCC3(CC2)CCN(C2=C(C4CC4)C(=O)OC2)CC3)ccc2c1COC2=O [Example 44, (R)-5-(2-(9-(4-cyclopropyl-5-oxo-2,5-dihydrofuran-3-yl)-3,9-diazaspiro[5.5]undecan-3-yl)-1-hydroxyethyl)-4-methylisobenzofuran-1(3H)-one]",17
9,"CC1=C(N2CCC3(CCN(C[C@@H](O)c4ccc(-n5cnnn5)nc4C)CC3)CC2)CCC1=O [Example 75, (S)-3-(9-(2-hydroxy-2-(2-methyl-6-(1H-tetrazol-1-yl)pyridin-3-yl)ethyl)-3,9-diazaspiro[5.5]undecan-3-yl)-2-methylcyclopent-2-enone]",279
10,"CC1=C(N2CCC3(CCN(C[C@H](O)c4ccc(-n5cnnn5)cc4C)CC3)CC2)COC1=O [Example 55, (R)-4-(9-(2-hydroxy-2-(2-methyl-4-(1H-tetrazol-1-yl)phenyl)ethyl)-3,9-diazaspiro[5.5]undecan-3-yl)-3-methylfuran-2(5H)-one]",11
11,"CC1=C(N2CCC3(CCN(C[C@@H](O)c4ccc(-n5cnnn5)nc4)CC3)CC2)COC1=O [Example 48, (S)-4-(9-(2-(6-(1H-tetrazol-1-yl)pyridin-3-yl)-2-hydroxyethyl)-3,9-diazaspiro[5.5]undecan-3-yl)-3-methylfuran-2(5H)-one]",19
12,"Cc1c(N2CCC3(CCN(C[C@@H](O)c4cnc(-n5cnnn5)cn4)CC3)CC2)c(=O)c1=O [Example 86, (R)-3-(9-(2-(5-(1H-tetrazol-1-yl)pyrazin-2-yl)-2-hydroxyethyl)-3,9-diazaspiro[5.5]undecan-3-yl)-4-methylcyclobut-3-ene-1,2-dione]",336
13,"CC1=C(N2CCC3(CCN(C[C@@H](O)c4ccc(-n5cnnn5)cn4)CC3)CC2)COC1=O [Example 52, (R)-4-(9-(2-(5-(1H-tetrazol-1-yl)pyridin-2-yl)-2-hydroxyethyl)-3,9-diazaspiro[5.5]undecan-3-yl)-3-methylfuran-2(5H)-one]",37
14,"CC1=C(N2CCC3(CCN(C[C@H](O)c4ccc(-n5cnnn5)nc4C)CC3)CC2)COC1=O [Example 45, (R)-4-(9-(2-hydroxy-2-(2-methyl-6-(1H-tetrazol-1-yl)pyridin-3-yl)ethyl)-3,9-diazaspiro[5.5]undecan-3-yl)-3-methylfuran-2(5H)-one]",16
15,"CC1=C(N2CCC3(CCN(C[C@H](O)c4cccc(-n5cnnn5)c4)CC3)CC2)COC1=O [Example 59, (R)-4-(9-(2-(3-(1H-tetrazol-1-yl)phenyl)-2-hydroxyethyl)-3,9-diazaspiro[5.5]undecan-3-yl)-3-methylfuran-2(5H)-one]",22
16,"Cc1cc(-n2cnnn2)ccc1[C@@H](O)CN1CCC2(CC1)CCN(C1=CC(=O)OC1)CC2 [Example 24, (R)-4-(9-(2-hydroxy-2-(2-methyl-4-(1H-tetrazol-1-yl)phenyl)ethyl)-3,9-diazaspiro[5.5]undecan-3-yl)furan-2(5H)-one]",40
17,"CO[C@H](CN1CCC2(CC1)CCN(C1=CC(=O)OC1)CC2)c1ccc2c(c1C)COC2=O [Example 90, (S)-5-(1-methoxy-2-(9-(5-oxo-2,5-dihydrofuran-3-yl)-3,9-diazaspiro[5.5]undecan-3-yl)ethyl)-4-methylisobenzofuran-1(3H)-one]",165
18,"CC1=C(N2CCC3(CCN(C[C@@H](O)c4ccc(-n5cnnn5)cc4)CC3)CC2)COC1=O [Example 50, (S)-4-(9-(2-(4-(1H-tetrazol-1-yl)phenyl)-2-hydroxyethyl)-3,9-diazaspiro[5.5]undecan-3-yl)-3-methylfuran-2(5H)-one]",16
19,"CC1=C(N2CCC3(CCN(C[C@H](O)c4ccc(-n5cnnn5)nc4C)CC3)CC2)CCC1=O [Example 74, (R)-3-(9-(2-hydroxy-2-(2-methyl-6-(1H-tetrazol-1-yl)pyridin-3-yl)ethyl)-3,9-diazaspiro[5.5]undecan-3-yl)-2-methylcyclopent-2-enone]",69
